Data taken from US9353072B2, “Antimicrobial substituted thiazoles and methods of use” (Purdue Research Foundation, priority 2012, dated 2016).
Values after ≈ are worked out from the molar mass of the structure shown. Like-named read-outs stand apart in the source and are kept apart here.

Tests used:
MRSA ATCC 43300 = assay: MIC/MBC broth microdilution, MRSA ATCC 43300; assay type: cell-based, Staphylococcus aureus
Procedure: (§1) Determination of minimum inhibitory concentration (MIC). The MICs of the lead thiazole compound (compound 1a) and nine derivatives tested against all 18 MRSA strains were determined, in triplicate samples, using the broth microdilution method in accordance with the recommendations contained in the CLSI guidelines.

MRSA NRS384 (USA300) = assay: MIC/MBC broth microdilution, NRS384 (USA300); assay type: cell-based; settings: Staphylococcus aureus; Table 5; MRSA NRS384 (USA300); 128 μM down to 1.0 μM; 37° C., 19 hours; read-out: Minimum Inhibitory Concentration
Procedure: as §1

[1] = Staphylococcus aureus, Table 6, MRSA ATCC 43300, 128 μM down to 1.0 μM, 20 hours, read-out: MIC
[2] = Staphylococcus aureus, Table 4, MRSA ATCC 43300, 64 μM down to 0.5 μM, 37° C., 19 hours, read-out: Minimum Inhibitory Concentration

| MIC (MRSA ATCC 43300; [1]) | MIC (MRSA ATCC 43300; [2]) | Compound | also measured |
| --- | --- | --- | --- |
|  | > 64 µM | CCCCc1ccc(-c2nc(C)c(-c3nnn[nH]3)s2)cc1 [Compound R2, 2-(4-butylphenyl)-4-methyl-5-(1H-tetrazol-5-yl)thiazole] |  |
|  | > 64 µM | CCCCc1ccc(-c2nc(C)c(C(=O)NNC(=O)c3sc(-c4ccc(CCCC)cc4)nc3C)s2)cc1 [Compound R3, 2-(4-butylphenyl)-N′-(2-(4-butylphenyl)-4-methylthiazole-5-carbonyl)-4-methylthiazole-5-carbohydrazide] |  |
|  | > 64 µM | CCCCc1ccc(-c2nc(C)c(C(=O)NNC(=N)N)s2)cc1 [Compound R5, 2-(2-(4-butylphenyl)-4-methylthiazole-5-carbonyl)hydrazinecarboximidamide] |  |
|  | > 64 µM | CCCCc1ccc(-c2nc(C)c(C(N)=O)s2)cc1 [Compound R6, 2-(4-butylphenyl)-4-methylthiazole-5-carboxamide] |  |

Second part, the compound before the results:

| Compound | MIC (MRSA ATCC 43300; [1]) | MIC (MRSA ATCC 43300; [2]) | also measured |
| --- | --- | --- | --- |
| COc1cc(OC)cc(-c2ccc(-c3nc(C)c(C(C)=O)s3)cc2)c1 [Compound M19, 1-(2-(3′,5′-dimethoxy-[1,1′-biphenyl]-4-yl)-4-methylthiazol-5-yl)ethanone] |  |  | MIC (MRSA ATCC 43300; Staphylococcus aureus, 20 h): > 128 µM |
| [H]/N=C(/N)NN=C(C)c1sc(-c2cc[nH]n2)nc1C [Compound M20] |  |  | MIC (MRSA ATCC 43300; Table 6, MRSA ATCC 43300, 128 μM down to 1.0 μM, 20 hours, read-out: MIC): 8 µM (≈ 2.11 µg/mL) |
| CC(=O)c1sc(-c2ccc(-c3ccc(-c4nc(C)c(C(C)=O)s4)cc3)cc2)nc1C [Compound M21, 1,1′-(2,2′-([1,1′-Biphenyl]-4,4′-diyl)bis(4-methylthiazole-5,2-diyl))diethanone] | > 128 µM |  |  |
| CC(=O)c1sc(-c2cc[nH]n2)nc1C [Compound M22, 1-(4-Methyl-2-(1H-pyrazol-3-yl)thiazol-5-yl)ethanone] | > 128 µM |  |  |
| CC(=O)c1sc(-c2ccc(-c3ccc(-c4ccccc4)cc3)cc2)nc1C [Compound M23, 1-(2-([1,1′:4′,1″-Terphenyl]-4-yl)-4-methylthiazol-5-yl)ethanone] | > 128 µM |  |  |
| C/C(=N/NC(=N)N)c1sc(-c2cc[nH]n2)nc1C [Compound M24, (Z)-2-(1-(4-methyl-2-(1H-pyrazol-3-yl)thiazol-5-yl)ethylidene)hydrazinecarboximidamide] | > 128 µM |  |  |
| CCCCc1ccc(-c2nc(C)c(C(=O)NC[C@@H](O)CO)s2)cc1 [Compound R8, (R)-2-(4-butylphenyl)-N-(2,3-dihydroxypropyl)-4-methylthiazole-5-carboxamide] |  |  | MIC (MRSA NRS384 (USA300)): 128 µM (≈ 44.6 µg/mL) |
| CCCCc1ccc(-c2nc(C)c(C(=O)NC[C@H](O)CO)s2)cc1 [Compound R9, (S)-2-(4-butylphenyl)-N-(2,3-dihydroxypropyl)-4-methylthiazole-5-carboxamide] |  |  | MIC (MRSA NRS384 (USA300)): 128 µM (≈ 44.6 µg/mL) |
| CCCCc1ccc(-c2nc(C)c(C(=O)NCCN(C)C)s2)cc1 [Compound R10, 2-(4-butylphenyl)-N-(2-(dimethylamino)ethyl)-4-methylthiazole-5-carboxamide] |  |  | MIC (MRSA NRS384 (USA300)): 128 µM (≈ 44.2 µg/mL) |
